Measurements published in patent publication US7304075B2, “Stabilized liquid preparation” (Daiichi Pharmaceutical Co., Ltd., priority 2001, dated 2007).

Experiments:
Type in all cases: physicochemical
[1] = Light stability of aqueous sitafloxacin solution (white fluorescent tube irradiation); details: 1 mg/ml aqueous solution; for Transmission (%): T % at 430 nm
Experimental: To 160 ml of WFI were added 213.2 mg of sitafloxacin (active ingredient: 200 mg) and a varied amount of sodium chloride (0 mg for control, 20 mg, 100 mg, 200 mg, 1 g, 2 g, 4 g, 6 g or 10 g) or, for comparison, 10 g of D-sorbitol. Further, 5 ml of 0.1 mol/l aqueous hydrochloric acid was slowly added, followed by stirring for 30 mintues to dissolve sitafloxacin and sodium chloride. The nine kinds of solution each was adjusted to pH 4.0 by addition of 0.1 mol/l aqueous sodium hydroxide, and WFI was added to make 200 ml. Ten milliliter portions of the resulting aqueous solution were put into colorless ampules.
• (1) pH: Measured with a pH meter (F-16, supplied by Horiba, Ltd.). • (2) Osmotic pressure: Measured with an osmometer (3C2, supplied by Advanced Instrument, Inc.). • (3) (Light) Transmission: A transmission at 430 nm was measured with a Beckman DU-640 spectrophotometer. • (4) Retention: The content of sitafloxacin of the irradiated samples was determined as follows to calculate retention (%).
A test solution was prepared by accurately measuring 2 ml of a sample, adding an accurately measured equal amount of an internal standard solution, adding a mobile phase to make 20 ml, and mixing a 5 ml aliquot of the resulting solution with the mobile phase to make 20 ml.
A standard sitafloxacin solution was prepared by dissolving sitafloxacin for quantitative analysis (whose water content had been measured previously) precisely weighing about 0.1 g in the mobile phase to make a solution accurately measuring 100 ml, adding to an accurate 5 ml aliquot of the solution an accurately measured equal amount of the internal standard solution, adding the mobile phase to make 100 ml, and after thoroughly stirring, filtering the solution through a membrane filter. The test solution and the standard solution each measuring 10 μl were subjected to liquid chromatography under the following conditions. Ratios of the peak areas of sitafloxacin of the test solution or the standard solution to the peak area of the internal standard, QT and QS, were obtained, and the sitafloxacin content was determined according to the following equation. Sitafloxacin (C19H18ClF2N3O3) content (% to nominal amount)=amount (mg) of sitafloxacin for quantitative analysis (on dry basis)×(QT/QS)×(¼)×( 1/25)×100 wherein;
A standard solution was prepared by weighing 0.100 g of sitafloxacin for quantitative analysis (whose water content had been measured previously), adding a mobile phase to accurately make 100 ml, and adding the mobile phase to an accurately measured aliquot (1 ml) of the solution to make 100 ml.
A 10 μl aliquot of a sample and the standard solution was subjected to liquid chromatography under the following conditions, and the peak areas of the respective solutions were calculated by automatic integration to obtain the total content of sitafloxacin related substances.
Each of the 1 mg/ml aqueous solutions of sitafloxacin was irradiated with light of a white fluorescent tube (2500 lux×5 days: 300,000 lux·hr), and the same measurements as described above were repeated.

[2] = Water solubility of free sitafloxacin; details: around a neutral pH
[3] = Light stability of aqueous sitafloxacin solution (white fluorescent tube irradiation); details: sodium chloride-containing aqueous solution adjusted to pH 4.0, versus aqueous solutions without sodium chloride
[4] = Initial, 5% D-sorbitol in place of sodium chloride
[5] = Irradiated (300,000 lux·hr), 5% D-sorbitol in place of sodium chloride
[6] = Irradiated (300,000 lux·hr), NaCl 0%
[7] = Irradiated (300,000 lux·hr), NaCl 0.01%
[8] = Irradiated (300,000 lux·hr), NaCl 0.05%
[9] = Irradiated (300,000 lux·hr), NaCl 0.10%
[10] = Irradiated (300,000 lux·hr), NaCl 0.50%
[11] = Irradiated (300,000 lux·hr), NaCl 1.0%
[12] = Irradiated (300,000 lux·hr), NaCl 2.0%
[13] = Irradiated (300,000 lux·hr), NaCl 3.0%
[14] = Irradiated (300,000 lux·hr), NaCl 5.0%

## N[C@@H]1CN(c2c(F)cc3c(=O)c(C(=O)O)cn([C@@H]4C[C@@H]4F)c3c2Cl)CC12CC2 [sitafloxacin, (−)-7-[(7S)-7-amino-5-azaspiro[2.4]heptan-5-yl]-8-chloro-6-fluoro-1-[(1R,2S)-2-fluoro-1-cyclopropyl]-1,4-dihydro-4-oxo-3-quinolinecarboxylic acid]
[1]; [4]
  Total Related substances (%): 0.30%
  pH: 4.3
  Transmission (%): 77.2%
[1]; Initial, NaCl 0%
  Total Related substances (%): 0.31%
  pH: 4.2
  Transmission (%): 77.6%
[1]; Initial, NaCl 0.01%
  Total Related substances (%): 0.30%
  pH: 4.4
  Transmission (%): 77.1%
[1]; Initial, NaCl 0.05%
  Total Related substances (%): 0.29%
  pH: 4.3
  Transmission (%): 76.8%
[1]; Initial, NaCl 0.10%
  Total Related substances (%): 0.26%
  pH: 4.3
  Transmission (%): 76.7%
[1]; Initial, NaCl 0.50%
  Total Related substances (%): 0.28%
  pH: 4.2
  Transmission (%): 75.6%
[1]; Initial, NaCl 1.0%
  Total Related substances (%): 0.30%
  pH: 4.3
  Transmission (%): 74.7%
[1]; Initial, NaCl 2.0%
  Total Related substances (%): 0.31%
  pH: 4.3
  Transmission (%): 73.1%
[1]; Initial, NaCl 3.0%
  Total Related substances (%): 0.30%
  pH: 4.3
  Transmission (%): 72.8%
[1]; Initial, NaCl 5.0%
  Total Related substances (%): 0.30%
  pH: 4.3
  Transmission (%): 70.7%
[1]; [5]
  Retention (per Initial %): 86.6%
  Total Related substances (%): 5.90%
  pH: 3.5
  Transmission (%): 56.8%
[1]; [6]
  Retention (per Initial %): 84.2%
  Total Related substances (%): 5.90%
  pH: 3.4
  Transmission (%): 47.1%
[1]; [7]
  Retention (per Initial %): 87.9%
  Total Related substances (%): 5.21%
  pH: 3.7
  Transmission (%): 52.8%
[1]; [8]
  Retention (per Initial %): 91.7%
  Total Related substances (%): 3.84%
  pH: 3.8
  Transmission (%): 61.0%
[1]; [9]
  Retention (per Initial %): 93.5%
  Total Related substances (%): 3.02%
  pH: 3.8
  Transmission (%): 64.4%
[1]; [10]
  Retention (per Initial %): 94.2%
  Total Related substances (%): 2.48%
  pH: 3.9
  Transmission (%): 63.6%
[1]; [11]
  Retention (per Initial %): 94.7%
  Total Related substances (%): 2.02%
  pH: 3.9
  Transmission (%): 62.6%
[1]; [12]
  Retention (per Initial %): 94.0%
  Total Related substances (%): 2.30%
  pH: 3.8
  Transmission (%): 60.7%
[1]; [13]
  Retention (per Initial %): 95.5%
  Total Related substances (%): 2.01%
  pH: 3.9
  Transmission (%): 61.0%
[1]; [14]
  Retention (per Initial %): 94.8%
  Total Related substances (%): 2.28%
  pH: 3.9
  Transmission (%): 57.6%
[2]
  water solubility: poor
[3]
  formation of related substances due to irradiation or the reduction in pH: more suppressed
